Data reported in patent publication US6395787B1, “Ocular hypotensive lipids” (Allergan Sales, Inc., priority 2000, dated 2002).

Experiments:
[1] = target: recombinant feline FP receptor (Felis catus, UniProt A0ABI7XJ69); experiment: Ca2+ signal in HEK-293 cells stably transfected with recombinant feline FP receptor; type: cell-based, cat; conditions: for Δ[Ca^2+]i mean χ ± SEM: n = 3
Procedure: Human CRL 1497 cells were plated in culture flasks and fed Dulbecco's modified Eagle's medium (DMEM) containing 10% fetal calf serum, 2 mM 1-glutamine, and 0.05 mg/ml gentacin (all purchased from Gibco, Grand Island, N.Y.). Cell cultures were maintained in a humidified atmosphere of 95% air, 5% CO2 and grown to confluency. Cells were removed from the culture flasks by approximately 1 min treatment with trypsin 0.05%/0.53 mM EDTA in Hanks Balanced Salt Solution (HBSS, Gibco, Grand Island, N.Y.) at 37° C. Proteolytic activity was arrested by adding 5 ml of 10% fetal bovine serum in DMEM. The cells were consecutively washed in Hank's BSS and medium containing 140 mM NaCl, […], 1 mM MgCl2, 1.5 mM CaCl2, 10 mM HEPES: TRIS, 5 mM glucose, 5 mM Na pyruvate, 0.1% bovine serum albumin at pH 7.4: Centrifugation for the washes was performed for 15 minutes at 200 g at room temperature. Cells were counted, resuspended in the above medium and incubated with 2×10^−6 M Fura 2/acetoxymethyl ester in a shaking water bath for 30 minutes at 37° C. The cells were subsequently washed in medium as above and resuspended at a concentration of 2×10^6 cells ml^−1. Aliquots of 0.5 ml cell suspension were then added to autocap microtubes to provide 10^6 cells per experimental determination of intracellular free Ca^2+ concentration ([Ca^2+]i).
Fluorescence was measured in a Perkin-Elmer LS-5 fluorescence spectrophotometer at excitation and emission wavelengths of 340 and 492 nm, respectively, with both slits at 10 nm. For each experimental determination 10^6 cells were washed (200×g for 5 min) and suspended in a 2 ml cuvette with buffer containing 120 mM NaCl, 6 mM KCl, 1 mM MgSO4, 1.5 mM CaCl2, 20 mM HEPES, 1 mg ml^−1 glucose and 1 mg ml^−1 Na pyruvate. Stirring was achieved by an overhead-mounted, paddle stirrer with the temperature maintained at 37° C. The cells were lysed with digitonin (10 μl of 100 mg ml^−1 DMSO) to obtain fmax. EGTA (100 mM) and sufficient 10N NaOH to adjust the pH to 8.5 were then successively added to obtain fmin.
HEK-293 cells were grown in DMEM with 10% fetal bovine serum (FBS), 250 μg ml^−1 G418 (Life Technologies) and 200 μg ml^−1 gentamicin or penicillin/streptomycin. […] For transfection, the cells were grown to 50-60% confluency on 10 cm plates. The plasmid pCEP4 incorporating cDNA inserts for the human FP receptor (20 μg) was added to 500 μl of 250 mM CaCl2. HEPES buffered saline×2 (2×HBSS, 280 mM NaCl, 20 mM HEPES acid, 1.5 mM Na2 HPO4, pH 7.05-7.12) was then added dropwise to a […], with continuous vortexing at room temperature. After 30 min, 9 ml DMEM were added to the mixture. The DNA/DMEM/calcium phosphate mixture was then added to the cells, which had been previously rinsed with 10 ml phosphate buffered saline (PBS). The cells were then incubated for 5 h. at 37° C. in humidified 95% air/5% CO2. The calcium phosphate solution was then removed and the cells were treated with 10% glycerol in DMEM for 2 min. The glycerol solution was then replaced by DMEM with 10% fetal bovine serum (FBS). The cells were incubated overnight and the medium was replaced by DMEM/10% FBS containing 250 μg ml^−1 G418 and penicillin/streptomycin. The following day hygromycin B was added to a final concentration of 200 μg ml^−1.
Ten days after transfection, hygromycin B resistant clones were individually selected and transferred to a separate well on a 24 well plate. […]

[2] = test system: isolated guinea pig vas deferens (EP3 receptor subtype); experiment: Inhibition of field stimulated contraction of isolated guinea pig vas deferens
Procedure: Smooth muscle tension of isolated tissues was measured isometrically with force displacement transducers (Grass FT-03) and recorded on Grass Polygraphs (Models 7G and 79E). The organ baths contained Krebs solution maintained at 37° C. and gassed with 95% 02/5% CO2 to give a pH of 7.4. The Krebs solution had the following composition (mM): NaCl, 118.0; KCl, 4.7; KH2PO4, 1.2; CaCl2, 1.9; MgSO4, 1.18; NaHCO3, 25.0; glucose, 11.7; indomethacin, 0.001.
Activity at the prostaglandin-sensitive EP3 receptor subtype was also determined by the ability of prostanoids to inhibit the smooth muscle twitch response stimulated by an electrical current in the isolated guinea pig vas deferens. 1.5 cm portions of the guinea pig vas deferens were suspended under 1 g initial tension and allowed to equilibrate for at least 30 minutes. Tissues were then subjected to stimulation every 30 seconds by 20 volt electrical pulses. After stabilization of the twitch response, a standard dose response curve to PGE2 was performed in a cumulative fashion. Test compounds were then evaluated by performing a cumulative dose response curve. Tissues were washed-out and allowed to equilibrate for 1 hr between compounds. PGE2 was once again evaluated at the conclusion of the experiment as a standard reference. Activity was calculated as the percent inhibition of the height of the muscle twitch response.

human FP receptor = human FP receptor (Homo sapiens, UniProt P43088); experiment: Radioligand binding competition vs 3H-17-phenyl PGF2α, recombinant human FP receptor; set-up: expressed in transfected cells; conditions: for % specific binding mean χ ± SEM: vs 5nM 3H-17-phenyl PGF2α, n = 3
human FP receptor, sequence (P43088 whole entry): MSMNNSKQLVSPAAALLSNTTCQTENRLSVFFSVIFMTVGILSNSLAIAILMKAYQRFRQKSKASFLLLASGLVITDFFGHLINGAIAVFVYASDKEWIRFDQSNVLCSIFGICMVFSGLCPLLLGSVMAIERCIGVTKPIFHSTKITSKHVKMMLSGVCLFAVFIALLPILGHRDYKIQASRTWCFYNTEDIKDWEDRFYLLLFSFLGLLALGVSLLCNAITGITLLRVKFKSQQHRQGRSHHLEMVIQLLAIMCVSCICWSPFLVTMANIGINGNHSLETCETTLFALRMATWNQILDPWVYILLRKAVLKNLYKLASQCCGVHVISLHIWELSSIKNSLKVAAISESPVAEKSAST
Procedure: Plasma membrane preparations of HEK 293 cells stably transfected with the human or feline FP receptor were obtained as follows. Cells washed with TME buffer were scraped from the bottom of the flasks and homogenized for 30 sec using a Brinkman PT 10/35 polytron. TME buffer was added as necessary to achieve a 40 ml volume in the centrifuge tubes. TME is comprised of 100 mM TRIS base, 20 mM Mg Cl2, 2 m EDTA; physiological pH is achieved by adding 10 N HCl. The cell homogenate was centrifuged at 19,000 rpm for 20 min at 4-6° C. using a Beckman Ti-60 rotor. The pellet was then resuspended in TME buffer to provide a final protein concentration of 1 mg/ml, as determined by Biorad assay. Radioligand binding assays were performed in a 200 μl volume.
Incubations were for 60 min at 25° C. and were terminated by the addition of 4 ml of ice-cold 50 mM TRIS-HCl followed by rapid filtration through Whatman GF/B filters and three additional 4 ml washes in a cell harvester (Brandel).

recombinant feline FP receptor, sequence (A0ABI7XJ69 entry or part of it): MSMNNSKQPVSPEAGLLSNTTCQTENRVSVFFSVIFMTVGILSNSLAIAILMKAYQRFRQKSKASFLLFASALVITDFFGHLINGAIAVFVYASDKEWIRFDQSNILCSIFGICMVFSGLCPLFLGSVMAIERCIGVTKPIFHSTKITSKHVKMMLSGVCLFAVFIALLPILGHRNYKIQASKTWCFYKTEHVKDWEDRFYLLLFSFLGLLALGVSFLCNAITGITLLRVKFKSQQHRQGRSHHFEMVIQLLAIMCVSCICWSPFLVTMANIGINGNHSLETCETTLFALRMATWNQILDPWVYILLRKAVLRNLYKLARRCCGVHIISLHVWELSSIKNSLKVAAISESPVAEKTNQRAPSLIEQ

`CCCCC[C@H](O)/C=C/[C@@H]1[C@@H](C/C=C\CCCC(=O)NCCO)[C@@H](O)C[C@H]1O` [PGF2α 1-ethanolamide, (5Z,8α,9α,11α,13E,15S)-9,11,15-trihydroxy-N-(2-hydroxyethyL)prosta-5,13-dien-1-amide] was tested, and the “Δ[Ca^2+]i mean χ ± SEM” value ([1]; 10^−9 M) was 22.2 ± 6.4, the “Δ[Ca^2+]i mean χ ± SEM” value ([1]; 10^−10 M) was 6.5 ± 5.0 and the “difference in potency vs PGF2α” value ([1]; HEK-293 cells, recombinant feline FP receptor, Ca2+ signal) was “approximately 100 fold”. The EC50 ([1]; HEK-293 cells, recombinant feline FP receptor, read-out: E.C.50, Ca2+ signal) was 1460 nM, the “inhibiting field stimulation evoked contraction” value [2] was “modestly effective” and the “% specific binding mean χ ± SEM” value (human FP receptor; 10^−5 M) was 19.7 ± 1.2%. For the same compound, the “% specific binding mean χ ± SEM” value (human FP receptor; 10^−6 M) was 63.7 ± 2.7%, the “% specific binding mean χ ± SEM” value (human FP receptor; 10^−7 M) was 95.9 ± 1.5% and the “% specific binding mean χ ± SEM” value (human FP receptor; 10^−8 M) was 103.3 ± 0.3%. For the same compound, the “% specific binding mean χ ± SEM” value (human FP receptor; 10^−9 M) was 94.7 ± 1.4% and the IC50 (human FP receptor; read-out: I.C.50, radioligand binding) was 2020 nM.
